Test system: Renal Hypertensive Rats
Assay: Antihypertensive effects in renal hypertensive rats
Assay type: in vivo
Settings: Rattus norvegicus; for minimal effective dose at 10 mg/kg / minimal effective dose at 100 mg/kg: Table 25; for minimal effective dose at 10 mg/kg / minimal effective dose at 3 mg/kg: intravenous; for minimal effective dose at 10 mg/kg: 10 mg/kg or less; for minimal effective dose at 100 mg/kg / minimal effective dose at 30 mg/kg: oral; for minimal effective dose at 100 mg/kg: 100 mg/kg or less; for minimal effective dose at 3 mg/kg / minimal effective dose at 30 mg/kg: Table 26
Method: This procedure increases blood pressure by increasing renin production with consequent elevation of AII levels. Compounds are administered orally at 100 mg/kg and/or intravenously via a cannula in the jugular vein at 10 mg/kg. Arterial blood pressure is continuously measured directly through a carotid artery cannula and recorded using a pressure transducer and a polygraph. Blood pressure levels after treatment are compared to pretreatment levels to determine the antihypertensive effects of the compounds (See Table 25).
Compounds listed in Table 26 were tested in the same manner as described for Table 25, except that in the test for antihypertensive effects in renal hypertensive rats, the compounds were administered orally at 30 mg/kg and intravenously at 3 mg/kg.

Row | SMILES | minimal effective dose at 10 mg/kg [mg/kg] | minimal effective dose at 100 mg/kg [mg/kg] | also measured
1 | CCCCc1nc(Cl)c(CO)n1Cc1ccc(-c2occc2C(=O)O)cc1 (single isomer, unassigned) [Example 178, 2-n-Butyl-1-[4-(3-carboxyfuran-2-yl)benzyl]-4-chloro-5-(hydroxymethyl)imidazole] | < 10 | < 100 | 
2 | CCCCc1nc(Cl)c(CC(=O)O)n1Cc1ccc(C(=O)O)cc1 [Example 1, 2-Butyl-1-(4-carboxybenzyl)-4-chloroimidazole-5-acetic acid] | < 10 | > 100 | 
3 | CCCCc1nc(Cl)c(CC(=O)OC)n1Cc1ccc(NC(=O)c2ccccc2C(=O)O)cc1 [Example 2, Methyl 2-butyl-1-[4-(2-carboxybenzamido)benzyl]-4-chloroimidazole-5-acetate] |  |  | minimal effective dose at 10 mg/kg (tested as sodium salt): < 10 mg/kg; minimal effective dose at 100 mg/kg (tested as sodium salt): > 100 mg/kg
4 | CCCCc1nc(Cl)c(COC)n1Cc1ccc(NC(=O)c2ccccc2C(=O)O)cc1 [Example 4, 2-Butyl-1-[4-(2-carboxybenzamido)benzyl]-4-chloro-5-(methoxymethyl)-imidazole] |  |  | minimal effective dose at 10 mg/kg (tested as sodium salt): < 10 mg/kg; minimal effective dose at 100 mg/kg (tested as sodium salt): > 100 mg/kg
5 | CCCCc1nc(Cl)c(CC(=O)OC)n1Cc1ccc(NC(=O)c2c(F)c(F)c(F)c(F)c2C(=O)O)cc1 [Example 8] |  |  | minimal effective dose at 100 mg/kg (tested as sodium salt): > 100 mg/kg
6 | CCCCc1nc(Cl)c(COC)n1Cc1ccc(NC(=O)c2c(Cl)ccc(Cl)c2C(=O)O)cc1 [Example 17] |  |  | minimal effective dose at 10 mg/kg (tested as sodium salt): < 10 mg/kg; minimal effective dose at 100 mg/kg (tested as sodium salt): > 100 mg/kg
7 | CCCCc1nc(Cl)c(COC)n1Cc1ccc(NC(=O)c2ccccc2S(=O)(=O)O)cc1 [Example 18a] |  |  | minimal effective dose at 3 mg/kg: < 3 mg/kg; minimal effective dose at 30 mg/kg: < 30 mg/kg
8 | CCCCc1nc(Cl)c(CO)n1Cc1ccc(-c2cccc(C(=O)O)c2)cc1 [Example 85, 1-[(3'-Carboxybiphenyl-4-yl)-methyl]-2-butyl-4-chloro-5-hydroxymethylimidazole] | < 10 | < 100 | 
9 | CCCCc1nc(Cl)c(COC)n1Cc1ccc(-c2cccc(C(=O)O)c2)cc1 [Example 86, 1-[(3'-Carboxybiphenyl-4-yl)-methyl]-2-butyl-4-chloro-5-methoxymethylimidazole] | < 10 | > 100 | 
10 | CCCCc1nc(Cl)c(CO)n1Cc1ccc(-c2ccccc2-c2nnn[nH]2)cc1 [Example 89, 2-n-butyl-4-chloro-5-hydroxymethyl-1-[(2'-(1H-tetrazol-5-yl)biphenyl-4-yl)methyl]imidazole] | < 10 | < 100 | 
11 | CCCCc1nc(C(F)(F)F)c(CO)n1Cc1ccc(-c2ccccc2-c2nnn[nH]2)cc1 [Example 92B, 2-butyl-5-hydroxymethyl-1-[(2'-(1H-tetrazol-5-yl)biphenyl-4-yl)methyl]-4-trifluoromethylimidazole] |  |  | minimal effective dose at 3 mg/kg: < 3 mg/kg
12 | CCCSc1ncc(CO)n1Cc1ccc(-c2ccccc2C(=O)O)cc1 [Example 93, 1-[(2'-carboxybiphenyl-4-yl)-methyl]-2-propylthio-5-hydroxymethylimidazole] | < 10 | > 100 | 
13 | CCCCc1nc(Cl)c(COC)n1Cc1ccc(-c2ccccc2C(=O)O)cc1 [Example 98] |  |  | minimal effective dose at 10 mg/kg (tested as sodium salt): < 10 mg/kg; minimal effective dose at 100 mg/kg (tested as sodium salt): < 100 mg/kg
14 | CCCCCCc1nc(Cl)c(CO)n1Cc1ccc(-c2ccccc2C(=O)O)cc1 [Example 110] | < 10 | < 100 | 
15 | CCCCc1nc(Cl)c(COC(C)=O)n1Cc1ccc(-c2ccccc2C(=O)O)cc1 [Example 121] | < 10 | < 100 | 
16 | CCCCc1nc(Br)c(CO)n1Cc1ccc(-c2ccccc2-c2nn[nH]n2)cc1 [Example 124C] |  |  | minimal effective dose at 3 mg/kg: < 3 mg/kg; minimal effective dose at 30 mg/kg: < 30 mg/kg
17 | CCCCc1nc(I)c(CO)n1Cc1ccc(-c2ccccc2-c2nnn[nH]2)cc1 [Example 124L] |  |  | minimal effective dose at 3 mg/kg: < 3 mg/kg; minimal effective dose at 30 mg/kg: < 30 mg/kg
18 | CCCCc1nc(Cl)c(C=O)n1Cc1ccc(-c2ccccc2C(=O)O)cc1 [Example 125, 1-[(2'-carboxybiphenyl-4-yl)methyl]-2-butyl-4-chloroimidazole-5-carboxaldehyde] | < 10 | < 100 | 
19 | CC/C=C/c1nc(Cl)c(CO)n1Cc1ccc(-c2ccccc2C(=O)O)cc1 [Example 128, 1-[(2'-Carboxybiphenyl-4-yl)-methyl]-2-(1-trans-butenyl)-4-chloro-5-hydroxymethylimidazole] | < 10 | < 100 | 
20 | CC/C=C/c1nc(Cl)c(C=O)n1Cc1ccc(-c2ccccc2C(=O)O)cc1 [Example 129, 1-[(2'-Carboxybiphenyl-4-yl)methyl]-2-(1-trans-butenyl)-4-chloroimidazole-5-carboxaldehyde] | < 10 | < 100 | 

Row | SMILES | minimal effective dose at 10 mg/kg [mg/kg] | minimal effective dose at 100 mg/kg [mg/kg] | also measured
21 | CCCc1nc(C(F)(F)C(F)(F)F)c(C=O)n1Cc1ccc(-c2ccccc2-c2nnn[nH]2)cc1 [Example 140G] |  |  | minimal effective dose at 30 mg/kg: < 30 mg/kg
22 | CCCCc1nc(Cl)c(COC)n1Cc1ccc(-c2ccccc2NS(=O)(=O)C(F)(F)F)cc1 [Example 141, 1-[(2'-trifluoromethanesulfonamidobiphenyl-4-yl)methyl]-2-butyl-4-chloro-5-methoxymethylimidazole] | < 10 | < 100 | 
23 | CCCCc1nc(Cl)c(CO)n1Cc1ccc(-c2ccccc2NS(=O)(=O)C(F)(F)F)cc1 [Example 144] | < 10 | < 100 | 
24 | CCCCc1nc(Cl)c(COC)n1Cc1ccc(-c2ccccc2C(=O)Nc2nnn[nH]2)cc1 [Example 173, 2-n-Butyl-4-chloro-5-methoxymethyl-1-[(2'-((tetrazol-5-yl)aminocarbonyl)biphenyl-4-yl)-methyl]imidazole] |  |  | minimal effective dose at 10 mg/kg (tested as sodium salt): < 10 mg/kg
25 | CCCCc1nc(Cl)c(CO)n1Cc1ccc(-c2ccccc2C(=O)NOC)cc1 [Example 180, 1-[(2'-Methoxyaminocarbonylbiphenyl-4-yl)methyl]-2-butyl-4-chloro-5-hydroxymethylimidazole] | < 10 | > 100 | 
26 | CCCCc1nc(Cl)c(CO)n1Cc1ccc(-c2ccccc2NC(=O)C(F)(F)F)cc1 [Example 183, 1-[(2'-Trifluoroacetamidobiphenyl-4-yl)methyl]-2-butyl-4-chloro-5-hydroxymethylimidazole] | < 10 | > 100 | 
27 | CCCCc1nc(Cl)c(CO)n1Cc1ccc(Oc2ccccc2C(=O)O)cc1 [Example 184, 2-Butyl-4-chloro-1-[4-(2-carboxyphenoxy)benzyl]-5-hydroxymethylimidazole] | < 10 | > 100 | 
28 | CCCCc1nc(Cl)c(CO)n1Cc1ccc(Sc2ccccc2C(=O)O)cc1 [Example 185] | < 10 | > 100 | 
29 | CCCCc1ncc(CO)n1Cc1ccc(OCc2ccccc2C(=O)O)cc1 [Example 193, 1-[4-(2-Carboxybenzyloxy)-benzyl] -2-butyl-5-hydroxymethylimidazole] | < 10 | > 100 | 
30 | CCCCc1nc(Cl)c(CO)n1Cc1ccc(OCc2ccccc2C(=O)O)cc1 [Example 195] | < 10 | < 100 | 
31 | CCCCc1nc(Cl)c(COC(C)=O)n1Cc1ccc(OCc2ccccc2C(=O)O)cc1 [Example 199] |  | > 100 | 
32 | CCCCc1nc(Cl)c(CO)n1Cc1ccc(C(=O)c2ccccc2C(=O)O)cc1 [Example 202, 2-Butyl-1-[4-(2-Carboxybenzoyl)benzyl]-4-chloro-5-(hydroxymethyl)imidazole] |  |  | minimal effective dose at 10 mg/kg (tested as sodium salt): < 10 mg/kg; minimal effective dose at 100 mg/kg (tested as sodium salt): > 100 mg/kg
33 | CCCCc1nc(CO)c(Cl)n1Cc1ccc(C(=O)c2ccccc2C(=O)O)cc1 [Example 203] |  |  | minimal effective dose at 10 mg/kg (tested as sodium salt): < 10 mg/kg; minimal effective dose at 100 mg/kg (tested as sodium salt): < 100 mg/kg
34 | CCCCc1nc(Cl)c(COC)n1Cc1ccc(C(=O)c2ccccc2C(=O)O)cc1 [Example 207] |  |  | minimal effective dose at 10 mg/kg (tested as sodium salt): < 10 mg/kg; minimal effective dose at 100 mg/kg (tested as sodium salt): < 100 mg/kg
35 | CCCCc1nc(Cl)c(C(=O)O)n1Cc1ccc(-c2ccccc2-c2nn[nH]n2)cc1 [Example 252] |  |  | minimal effective dose at 3 mg/kg: < 3 mg/kg; minimal effective dose at 30 mg/kg: < 30 mg/kg
36 | CCCc1nc(C(F)(F)C(F)(F)F)c(C(=O)O)n1Cc1ccc(-c2ccccc2-c2nn[nH]n2)cc1 [Example 265C] |  |  | minimal effective dose at 3 mg/kg: < 3 mg/kg
37 | CCCCc1nc(Cl)c(CO)n1Cc1ccc(-c2ccccc2C(=O)NS(=O)(=O)c2ccccc2)cc1 [Example 318, 1-[(2'-(Benzenesulfonamidocarbonyl)biphenyl-4-yl)methyl]-2-butyl-4-chloro-5-hydroxymethylimidazole] | < 10 | > 100 | 
38 | CCCc1nc(-c2ccccc2)c(C=O)n1Cc1ccc(-c2ccccc2C(=O)O)cc1 [Example 322] |  |  | minimal effective dose at 3 mg/kg: < 3 mg/kg; minimal effective dose at 30 mg/kg: < 30 mg/kg
39 | CCCCc1nc(CO)c(Cl)n1Cc1ccc(-c2ccccc2-c2n[nH]c(C(F)(F)F)n2)cc1 [Example 341, 2-n-Butyl-5-chloro-4-hydroxy-methyl-1-[(2'-(5-trifluoromethyl-1,2,4-triazol-3-yl)biphenyl-4-yl)methyl]imidazole] | < 10 | < 100 | 
